This assay has as its target T1, VEGFR-2 (Homo sapiens, UniProt P35968).
T1 construct: gene KDR; biotin-labeled VEGFR-2 (Prospec)
Briefly: in vitro tyrosine kinase ELISA. In kind it is biochemical.

These results are taken from PMC3702614, “Dietary Compound Isoliquiritigenin Inhibits Breast Cancer Neoangiogenesis via VEGF/VEGFR-2 Signaling Pathway” (PLoS ONE, 2013).

T1 sequence (P35968 20-1356): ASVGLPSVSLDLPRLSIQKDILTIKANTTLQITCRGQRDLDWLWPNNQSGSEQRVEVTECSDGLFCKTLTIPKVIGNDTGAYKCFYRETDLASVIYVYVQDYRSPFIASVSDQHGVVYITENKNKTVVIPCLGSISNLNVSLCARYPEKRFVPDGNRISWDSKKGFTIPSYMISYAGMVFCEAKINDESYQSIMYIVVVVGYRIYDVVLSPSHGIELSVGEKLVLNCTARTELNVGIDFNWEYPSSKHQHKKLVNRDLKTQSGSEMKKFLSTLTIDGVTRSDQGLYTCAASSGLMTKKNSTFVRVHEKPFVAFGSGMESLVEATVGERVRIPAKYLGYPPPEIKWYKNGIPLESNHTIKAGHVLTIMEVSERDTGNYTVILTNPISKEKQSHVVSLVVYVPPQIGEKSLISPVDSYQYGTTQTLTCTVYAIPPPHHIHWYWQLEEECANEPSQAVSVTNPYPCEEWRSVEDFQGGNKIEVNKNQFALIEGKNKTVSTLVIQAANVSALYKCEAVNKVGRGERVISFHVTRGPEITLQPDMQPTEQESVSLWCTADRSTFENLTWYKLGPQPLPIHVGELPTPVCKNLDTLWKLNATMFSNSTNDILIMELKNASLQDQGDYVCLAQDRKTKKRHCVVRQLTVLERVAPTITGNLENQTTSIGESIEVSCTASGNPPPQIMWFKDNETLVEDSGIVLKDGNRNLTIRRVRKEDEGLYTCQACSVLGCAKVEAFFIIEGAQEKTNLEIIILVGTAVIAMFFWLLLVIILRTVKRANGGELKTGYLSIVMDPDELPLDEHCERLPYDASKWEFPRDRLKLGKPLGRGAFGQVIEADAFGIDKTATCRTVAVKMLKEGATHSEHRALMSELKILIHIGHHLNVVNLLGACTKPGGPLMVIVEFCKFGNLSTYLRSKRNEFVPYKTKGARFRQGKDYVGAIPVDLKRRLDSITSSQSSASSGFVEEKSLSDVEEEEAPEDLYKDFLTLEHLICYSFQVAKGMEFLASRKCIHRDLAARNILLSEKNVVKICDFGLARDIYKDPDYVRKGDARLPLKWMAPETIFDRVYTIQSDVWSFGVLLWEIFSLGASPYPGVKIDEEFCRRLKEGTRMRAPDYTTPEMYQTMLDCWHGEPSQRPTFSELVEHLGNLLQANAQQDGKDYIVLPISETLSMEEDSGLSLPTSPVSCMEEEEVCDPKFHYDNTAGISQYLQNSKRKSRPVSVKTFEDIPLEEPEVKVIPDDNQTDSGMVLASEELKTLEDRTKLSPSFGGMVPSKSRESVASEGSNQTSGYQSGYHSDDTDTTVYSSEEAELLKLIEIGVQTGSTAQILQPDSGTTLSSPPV

As usually defined, the IC50 is the point on the concentration scale where inhibition reaches its midpoint. Lower therefore signals higher potency. `O=C(/C=C/c1ccc(O)cc1)c1ccc(O)cc1O` [ISL, Isoliquiritigenin] came in with an IC50 of about 100 nM.
